Test results as given in PMC4900628, “Critical Evaluation of P2X7 Receptor Antagonists in Selected Seizure Models” (PLoS ONE, 2016).

Columns and labels:
PTZ-induced kindling = PTZ-induced kindling development; type: in vivo, rats; details: for mean seizure stages after 8-day treatment-free interval (21st-25th PTZ-injection, vehicle only): rats formerly treated with TIIAS 30, BBG 50, AFC 30 mg/kg i.p. or JNJ 15 mg/kg s.c.; for mean number of PTZ-injections needed to produce the first generalized seizure (≥ stage 3) vs vehicle / effect on PTZ-kindling development (mean seizure stages): rats; for mean number of PTZ-injections needed to produce the first generalized seizure (≥ stage 3) vs vehicle: TIIAS 30, BBG 50, AFC 30 mg/kg i.p., JNJ 15 mg/kg s.c.; for effect on PTZ-kindling development (mean seizure stages): TIIAS 30 and BBG 50 mg/kg i.p. 45 min, AFC 30 mg/kg i.p. 45 min, JNJ 15 mg/kg s.c. 30 min before each PTZ 35 mg/kg i.p., every 48 h, 20 injections
Protocol: For PTZ-kindling, the initial sub-convulsive dose of PTZ (35 mg/kg) was injected i.p. once every 48 h (on Monday, Wednesday, and Friday, three times a week). After vehicle or vehicle/compound pre-treatment, PTZ was injected and the rats were individually observed for 30 min. Behavioural seizure responses were scored according to a defined graduation from stage 0 to stage 5. […] Rats received 20 successive PTZ-kindling stimulations. After an 8-day treatment-free interval, the animals were re-tested with PTZ (21st-25th injection) and vehicle pre-treatment without the compounds. […] Additional care was taken the hours following generalized tonic-clonic seizures and status epilepticus by providing the animals with soft food pellets and tap water if required. All efforts were made to minimize suffering. […] Chemicals, Toronto, Canada) was slowly added. The pH was adjusted with 1N NaOH (similar amount of NaOH as HCl), all with continuous stirring. […] The drug solutions or suspensions were prepared immediately before use; all doses refer to the salts. Animals in the control group received equivalent volumes of the vehicle (in mice always 10 ml/kg, in rats 1 ml/kg [JNJ], 3 ml/kg [AFC] or 4 ml/kg [BBG, TIIAS], depending on the solubility of the different compounds). Doses and peak time effects were selected on the basis of effective doses from corresponding in vivo studies in the literature: BBG (e.g.), tanshinone IIA (e.g.) and from manufacturer's experimental data: AFC, JNJ (see, [80]). Data were analysed using SigmaPlot (vers. 12.0, Systat Software, Erkrath, Germany) and SPSS (IBM SPSS Statistics 20, […], Germany), respectively. Results are expressed as mean ± SEM. […] In the MES-T, the current intensity inducing tonic hindlimb extensions in 50% of the mice (CC50 values with confidence limits for 95% probability) and the statistical significance was calculated using Probit analysis (SPSS). […] In the PTZ-T, the number of animals in the group with clonic seizures and the latency time were analysed using Fisher's exact probability test and the Mann-Whitney rank sum test, respectively. For multiple comparisons of the latency time a one-way ANOVA with the Holm-Sidak post hoc test was used. The influence of AFC on the plasma and brain concentrations of the antiepileptic drugs was statistical compared using the same procedure. In the PTZ-kindling model, the mean seizure stage within a group was calculated in relation to the number of PTZ-injections. Statistical comparison between vehicle- and compound-treated groups in this model was performed with two-way repeated measures ANOVA, followed by the Holm-Sidak post hoc test. The mean number of PTZ-injections needed to produce the first generalized seizure (≥ stage 3 convulsions) in the vehicle- versus compound-treated groups was statistically compared using a Mann-Whitney rank sum test. In fully kindled rats, the calculated mean seizure stage within a group after vehicle- and compound-treatment were compared using a paired t-test. P < 0.05 was the accepted minimum level of significance.

mouse P2X7R = target: T1, mouse P2X7R (Mus musculus, UniProt Q9Z1M0); assay: fluorometric Ca2+ assay (ATP-induced [Ca2+]i response) in HEKmP2X7 cells; type: cell-based; details: fluo-4, 1 mM ATP, read-out: Potency IC50 ± SEM, Mouse P2X7R
T1 construct: expressed in transfected cells
T1 sequence (Q9Z1M0 1-595): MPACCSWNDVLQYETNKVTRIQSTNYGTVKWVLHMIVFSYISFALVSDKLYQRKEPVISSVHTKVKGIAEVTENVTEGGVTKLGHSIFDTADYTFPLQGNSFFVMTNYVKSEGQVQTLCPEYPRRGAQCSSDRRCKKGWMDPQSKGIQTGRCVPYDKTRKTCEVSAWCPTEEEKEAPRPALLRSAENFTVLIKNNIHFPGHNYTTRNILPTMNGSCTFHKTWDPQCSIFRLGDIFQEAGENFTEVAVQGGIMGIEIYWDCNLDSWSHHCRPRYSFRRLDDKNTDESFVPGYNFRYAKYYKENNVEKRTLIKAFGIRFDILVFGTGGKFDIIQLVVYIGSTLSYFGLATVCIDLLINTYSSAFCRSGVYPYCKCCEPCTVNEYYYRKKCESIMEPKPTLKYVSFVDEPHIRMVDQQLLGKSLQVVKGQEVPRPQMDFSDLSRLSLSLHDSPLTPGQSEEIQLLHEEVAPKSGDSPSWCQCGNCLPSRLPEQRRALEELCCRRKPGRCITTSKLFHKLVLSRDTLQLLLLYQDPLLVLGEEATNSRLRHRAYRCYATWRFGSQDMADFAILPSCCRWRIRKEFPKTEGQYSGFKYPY
Protocol: Cells were grown in a humidified incubator at 37°C in an atmosphere supplemented with 5% CO2. […] HEK293mP2X7 were cultured in DMEM under similar conditions as described above, but containing 100 μg/ml zeocin (Invitrogen). […] Expression of the transgene was induced by supplementing the medium with 1 μg/ml tetracycline (Sigma-Aldrich, Taufkirchen, Germany) 24 h prior to the experiments. All fluorometric Ca^2+ assays in cell suspensions were performed in 384-microwell plates (Corning, No. 3655, Lowell, MA, USA) with a fluorescence-imaging microplate reader (POLARstar Omega, BMG Labtech, Offenburg, Germany) (for details, see [61, 68]). […] Microwell plates were repetitively scanned every 16 s in the fast scanning mode of the device. […] Data were normalized to the baseline values before ATP application (F/F0). […] ATP-solution was freshly prepared in Mg^2+-free HBS solution and adjusted to pH 7.4. Aliquots of stock solutions were stored at -20°C and freshly diluted with the appropriate HBS solution. […] Results are expressed as mean ± SEM. […] In the PTZ-T, the number of animals in the group with clonic seizures and the latency time were analysed using Fisher's exact probability test and the Mann-Whitney rank sum test, respectively. For multiple comparisons of the latency time a one-way ANOVA with the Holm-Sidak post hoc test was used. The influence of AFC on the plasma and brain concentrations of the antiepileptic drugs was statistical compared using the same procedure. In the PTZ-kindling model, the mean seizure stage within a group was calculated in relation to the number of PTZ-injections. Statistical comparison between vehicle- and compound-treated groups in this model was performed with two-way repeated measures ANOVA, followed by the Holm-Sidak post hoc test. […] In fully kindled rats, the calculated mean seizure stage within a group after vehicle- and compound-treatment were compared using a paired t-test. P < 0.05 was the accepted minimum level of significance.

| SMILES | mean seizure stages after 8-day treatment-free interval (21st-25th PTZ-injection, vehicle only) (PTZ-induced kindling) | mean number of PTZ-injections needed to produce the first generalized seizure (≥ stage 3) vs vehicle (PTZ-induced kindling) | effect on PTZ-kindling development (mean seizure stages) (PTZ-induced kindling) | IC50 (mouse P2X7R) [nM] |
| --- | --- | --- | --- | --- |
| Cc1c(S(=O)(=O)[O-])oc2c1C(=O)C(=O)c1c-2ccc2c1CCCC2(C)C.[Na+] [Tanshinone TIIAS, tanshinone IIS sulfonic sodium] | no differences of the mean seizure stages | required significantly more PTZ-injections | moderate, yet significant retarding effect on kindling development | ≥ 6000 |
| CCOc1ccc(Nc2ccc(/C(=C3C=C/C(=[N+](/CC)Cc4cccc(S(=O)(=O)[O-])c4)C=C/3C)c3ccc(N(CC)Cc4cccc(S(=O)(=O)O)c4)cc3C)cc2)cc1 [Brilliant Blue G] | no differences of the mean seizure stages | required significantly more PTZ-injections | moderate, yet significant retarding effect on kindling development | 530 ± 150 |
| O=C(NCC1(N2CCN(c3ccccc3)CC2)CCOCC1)c1cccnc1Sc1ccccc1 [JNJ-47965567, N-[[4-(4-phenyl-piperazin-1-yl)tetrahydro-2H-pyran-4-yl]-methyl]-2-(phenyl-thio) nicotinamide] | persisted after compound treatment ceased | required significantly more PTZ-injections | significantly reduced the PTZ-kindling development | 10 ± 1 |
